Results from ChEMBL document CHEMBL2073829, “Heterologous expression of a mammalian ABC transporter in plant and its application to phytoremediation” (Plant Mol Biol, 2006).

Target: Multidrug resistance-associated protein 1 (Homo sapiens, UniProt P33527)
Assay: TP_TRANSPORTER: growth inhibition in hMRP1-expressing tobacco
Type: functional, organism-based, (cultivar) Samsun NN
Conditions: nicotiana tabacum, in vivo

Sequence of Multidrug resistance-associated protein 1 (P33527 whole entry): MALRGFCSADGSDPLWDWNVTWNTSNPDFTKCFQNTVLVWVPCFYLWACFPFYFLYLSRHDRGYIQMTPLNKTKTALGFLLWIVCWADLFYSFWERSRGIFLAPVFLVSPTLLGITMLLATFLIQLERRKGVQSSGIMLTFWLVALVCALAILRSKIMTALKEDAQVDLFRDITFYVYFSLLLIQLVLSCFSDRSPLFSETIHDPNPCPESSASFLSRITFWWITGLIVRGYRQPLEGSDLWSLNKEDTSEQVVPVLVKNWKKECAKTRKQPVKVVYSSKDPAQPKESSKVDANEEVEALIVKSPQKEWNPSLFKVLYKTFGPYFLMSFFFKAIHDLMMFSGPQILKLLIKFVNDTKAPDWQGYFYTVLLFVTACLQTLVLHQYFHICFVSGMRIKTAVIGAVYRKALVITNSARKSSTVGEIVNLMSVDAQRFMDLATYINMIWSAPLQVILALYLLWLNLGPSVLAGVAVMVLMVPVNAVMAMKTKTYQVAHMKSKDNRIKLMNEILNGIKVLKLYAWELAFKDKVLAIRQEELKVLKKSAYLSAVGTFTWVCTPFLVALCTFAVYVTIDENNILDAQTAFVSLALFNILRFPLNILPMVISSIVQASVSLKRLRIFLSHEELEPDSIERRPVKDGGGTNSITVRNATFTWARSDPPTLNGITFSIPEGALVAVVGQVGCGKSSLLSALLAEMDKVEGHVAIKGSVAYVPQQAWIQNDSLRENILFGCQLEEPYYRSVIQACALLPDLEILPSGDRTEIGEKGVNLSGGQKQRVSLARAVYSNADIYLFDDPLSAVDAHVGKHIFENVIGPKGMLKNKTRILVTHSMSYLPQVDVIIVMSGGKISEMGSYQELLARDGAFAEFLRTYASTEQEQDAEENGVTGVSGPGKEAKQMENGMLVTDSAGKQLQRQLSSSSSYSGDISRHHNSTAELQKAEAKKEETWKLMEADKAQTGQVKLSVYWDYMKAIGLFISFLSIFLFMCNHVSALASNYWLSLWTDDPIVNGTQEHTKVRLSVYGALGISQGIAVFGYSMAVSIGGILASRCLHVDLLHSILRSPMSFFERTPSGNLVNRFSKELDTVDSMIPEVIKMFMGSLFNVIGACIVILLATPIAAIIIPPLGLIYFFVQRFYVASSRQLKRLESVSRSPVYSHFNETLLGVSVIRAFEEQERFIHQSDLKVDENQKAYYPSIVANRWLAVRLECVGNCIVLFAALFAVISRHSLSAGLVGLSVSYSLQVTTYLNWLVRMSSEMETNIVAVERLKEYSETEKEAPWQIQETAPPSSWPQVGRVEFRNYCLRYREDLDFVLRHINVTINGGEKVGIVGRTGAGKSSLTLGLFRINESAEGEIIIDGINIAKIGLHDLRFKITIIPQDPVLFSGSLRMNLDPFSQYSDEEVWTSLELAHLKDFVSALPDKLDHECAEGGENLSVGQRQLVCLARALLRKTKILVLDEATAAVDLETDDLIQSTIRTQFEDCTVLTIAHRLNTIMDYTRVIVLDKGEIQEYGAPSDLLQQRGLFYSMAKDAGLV

Substance: CADMIUM
- Activity: substrate []
